How the values were obtained:
[1] = biological target: Induced myeloid leukemia cell differentiation protein Mcl-1 (Homo sapiens, UniProt Q07820); assay: Irreversible inhibition of MCL-1 (unknown origin) measured after 8 hrs
[2] = Inhibition of staphylococcus aureus Sortase A assessed as fluorescence polarization using reporter peptide W7-F incubated for 30 mins by competition assay
[3] = biological target: Replicase polyprotein 1ab (Severe acute respiratory syndrome coronavirus 2, UniProt P0DTD1); assay: Inhibition of SARS-CoV-2 Main protease (Mpro) by FRET assay
[4] = Stability of the compound in pH 7.5 PBS assessed as hydrolysis by measuring half life at 500 uM by LC-MS analysis; type: physicochemical; settings: PBS pH 7.5, pH 7.5
[5] = biological target: Eukaryotic translation initiation factor 4E (Homo sapiens) (UniProt P06730); assay: Inhibition of eIF4E (unknown origin) assessed as inactivation rate constant (Kinact)
Chain of Eukaryotic translation initiation factor 4E (Homo sapiens) (P06730 whole entry): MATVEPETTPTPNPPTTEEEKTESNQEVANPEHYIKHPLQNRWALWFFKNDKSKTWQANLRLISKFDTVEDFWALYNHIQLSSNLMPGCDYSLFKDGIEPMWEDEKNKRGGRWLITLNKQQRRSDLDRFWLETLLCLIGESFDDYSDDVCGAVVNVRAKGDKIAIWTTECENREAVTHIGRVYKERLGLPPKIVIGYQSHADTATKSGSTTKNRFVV

[6] = biological target: Eukaryotic translation initiation factor 4E (Homo sapiens) (UniProt P06730); assay: Inhibition of eIF4E (unknown origin) assessed as reaction rate Kinact/Ki ratio
[7] = GSH reactivity in PBS buffer at pH 7.5 assessed as half life at 500 uM by LC-MS analysis; type: ADME
[8] = Stability of the compound in human plasma assessed as half life; type: ADME, cell-free
Signal peptidase I = Signal peptidase I (Escherichia coli K-12, UniProt P00803); assay: Binding affinity to Escherichia coli type I signal peptidase LepB assessed as inhibition constant
Chain of Signal peptidase I (P00803 whole entry): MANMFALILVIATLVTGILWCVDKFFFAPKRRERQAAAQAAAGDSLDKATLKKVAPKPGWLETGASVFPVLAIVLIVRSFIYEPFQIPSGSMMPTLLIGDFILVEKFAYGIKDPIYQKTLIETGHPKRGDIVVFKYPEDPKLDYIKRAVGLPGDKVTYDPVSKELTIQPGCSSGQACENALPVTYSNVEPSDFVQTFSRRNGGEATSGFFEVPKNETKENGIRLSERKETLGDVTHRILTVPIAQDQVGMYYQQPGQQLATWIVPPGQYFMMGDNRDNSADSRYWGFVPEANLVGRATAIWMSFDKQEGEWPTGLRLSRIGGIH

[9] = biological target: Signal peptidase I (Escherichia coli K-12) (UniProt P00803); assay: Irreversible inhibition of Escherichia coli type I signal peptidase LepB assessed as inactivation rate constant (Kinact)
Chain of Signal peptidase I (Escherichia coli K-12) (P00803 whole entry): as above

[10] = biological target: Signal peptidase I (Escherichia coli K-12) (UniProt P00803); assay: Inhibition of Escherichia coli type I signal peptidase LepB assessed as reaction rate Kinact/Ki ratio
[11] = Metabolic stability in human hepatocytes assessed as half life; type: ADME, cell-based, Hepatocyte
[12] = Metabolic stability in human liver microsomes assessed as half life; type: ADME, Microsome
[13] = biological target: T1, Peptidyl-prolyl cis-trans isomerase E (Homo sapiens, UniProt Q9UNP9); assay: Inhibition of CypE (unknown origin) expressed in Escherichia coli BL21(DE3) by FLIPR based Chymotrypsin coupled prolyl-isomerase assay
T1 sequence (Q9UNP9 whole entry): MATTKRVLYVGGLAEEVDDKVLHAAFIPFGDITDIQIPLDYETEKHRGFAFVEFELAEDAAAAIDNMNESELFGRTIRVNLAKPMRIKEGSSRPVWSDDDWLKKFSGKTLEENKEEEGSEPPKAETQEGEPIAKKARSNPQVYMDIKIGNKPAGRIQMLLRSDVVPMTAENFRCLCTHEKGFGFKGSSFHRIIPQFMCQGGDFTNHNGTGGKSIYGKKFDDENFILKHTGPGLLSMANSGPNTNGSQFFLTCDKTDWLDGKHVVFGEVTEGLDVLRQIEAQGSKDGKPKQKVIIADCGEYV

[14] = biological target: T1, Peptidyl-prolyl cis-trans isomerase E; assay: Inhibition of CypE (unknown origin) assessed as apparent inhibition constant incubated for 24 hrs by Competition anisotropy binding assay; settings: read-out: Ki(app)
Pyruvate kinase PKLR = Pyruvate kinase PKLR (Homo sapiens, UniProt P30613); assay: Allosteric activation at human liver pyruvate kinase
Chain of Pyruvate kinase PKLR (P30613 whole entry): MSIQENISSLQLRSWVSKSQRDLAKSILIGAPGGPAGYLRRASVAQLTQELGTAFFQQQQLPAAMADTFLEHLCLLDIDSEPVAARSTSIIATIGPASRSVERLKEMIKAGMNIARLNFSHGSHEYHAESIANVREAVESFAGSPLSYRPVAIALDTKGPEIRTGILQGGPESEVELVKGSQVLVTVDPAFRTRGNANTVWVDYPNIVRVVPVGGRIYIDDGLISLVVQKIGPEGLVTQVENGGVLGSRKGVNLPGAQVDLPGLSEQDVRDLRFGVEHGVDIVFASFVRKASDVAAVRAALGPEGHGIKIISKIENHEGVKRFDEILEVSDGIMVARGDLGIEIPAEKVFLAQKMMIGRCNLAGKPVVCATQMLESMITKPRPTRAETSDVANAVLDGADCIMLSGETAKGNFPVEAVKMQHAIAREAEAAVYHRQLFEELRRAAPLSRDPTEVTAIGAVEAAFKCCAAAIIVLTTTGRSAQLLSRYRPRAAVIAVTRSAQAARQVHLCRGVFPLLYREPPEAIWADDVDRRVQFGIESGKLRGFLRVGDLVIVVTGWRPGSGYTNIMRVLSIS

Chain of Induced myeloid leukemia cell differentiation protein Mcl-1 (Q07820 whole entry): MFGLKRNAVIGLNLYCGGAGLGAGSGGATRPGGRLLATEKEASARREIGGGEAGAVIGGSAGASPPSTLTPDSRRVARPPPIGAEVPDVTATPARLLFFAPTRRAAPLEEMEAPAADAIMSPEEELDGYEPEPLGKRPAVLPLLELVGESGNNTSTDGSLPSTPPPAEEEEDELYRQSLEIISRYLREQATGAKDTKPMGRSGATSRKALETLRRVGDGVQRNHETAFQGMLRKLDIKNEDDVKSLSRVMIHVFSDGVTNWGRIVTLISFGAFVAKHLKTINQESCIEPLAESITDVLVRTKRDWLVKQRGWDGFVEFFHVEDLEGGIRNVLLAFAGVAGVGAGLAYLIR

Structure (SMILES): C#Cc1ccc(OCc2nn(C)c(C)c2-c2cccc3c(CCCOc4cccc5ccccc45)c(C(=O)O)[nH]c23)cc1C=O
- IC50 [1]: 26.8 nM

Structure (SMILES): O=Cc1ccccc1NCc1ccccc1B(O)O
- IC50 [2]: 1300 nM

Structure (SMILES): O=C[C@H](CC1CCNC1=O)NC(=O)[C@H](Cc1cccc(F)c1)NC(=O)c1cc2ccccc2[nH]1 (stereo partly specified)
- IC50 [3]: 40 nM

Structure (SMILES): CNc1nc2ccc(N(Cc3ccnc(Cl)c3)S(=O)(=O)c3cccc(S(=O)(=O)F)c3)cc2c(=O)[nH]1
- half-life at 500 µM [4]: 30 min
- Kinact [5]: 2 10^-2/s
- Ratio [6]: 5.5 10^3/M/s
- half-life at 500 µM [7]: 2.7 min

Structure (SMILES): O=C1CCC(N2Cc3ccc(S(=O)(=O)n4cncn4)cc3C2=O)C(=O)N1 (stereo unspecified)
- half-life [8]: < 1 min

Structure (SMILES): Cc1nc(-c2ccc(C(C)(C)C)cc2)ncc1C(=O)N[C@@H](CCN)C(=O)N(C)[C@@H]1C(=O)N[C@@H](C)C(=O)N[C@H](C(=O)NCC#N)Cc2ccc(OCCN)c(c2)-c2cc1ccc2OCCN
- Ki (Signal peptidase I): 0.44 nM
- Kinact [9]: 7 10^-4/s
- Ratio [10]: 1.6 10^6/M/s

Structure (SMILES): O=C1CCC(N2Cc3ccc(OS(=O)(=O)F)cc3C2=O)C(=O)N1 (stereo unspecified)
- half-life [11]: > 217 min
- half-life [12]: > 145 min

Structure (SMILES): NCCOCCNC(=O)[C@@H]1CCNC(=O)/C=C/C(=O)N2CCC[C@](Cc3ccccc3)(C2)C(=O)N[C@@H](Cc2ccc(-c3ccccc3)cc2)C(=O)NCc2ccccc2CC(=O)N1
- IC50 [13]: 13 nM
- Ki [14]: 72 nM

Structure (SMILES): COC(=O)c1ccccc1SC1=NS(=O)(=O)c2ccccc21
- EC50 (Pyruvate kinase PKLR): 290 nM
